This is an account of results in US11453633B2, “Production method for crystal of reduced coenzyme Q10 having excellent stability” (KANEKA CORPORATION, priority 2018, dated 2022).

For series [1] the following is noted: compared with the conventional reduced coenzyme Q10 Form I crystal; cited from earlier work.
Series [2] in a line: Reduced coenzyme Q10 concentration dissolved in the liquid phase of the crystallization mixture, by HPLC (Example 11). The series is classed as physicochemical. The settings on record: 99.5% ethanol. How it is done: The inside of a 500 mL separable flask (made of borosilicate glass) was replaced with nitrogen, and 40.0 g of reduced coenzyme Q10 and 360 g of 99.5% ethanol were then added thereto (reduced coenzyme Q10 concentration: 10 wt. %). Thereafter, the obtained raw material mixture was warmed to 42° C. while stirring with a stirring blade (power required for stirring: 0.1 kw/m^3) to obtain a homogeneous solution. This solution was cooled to 35° C., and thereafter, 0.4 g (1 wt. %) of reduced coenzyme Q10 crystals comprising reduced coenzyme Q10 Form II crystals were added as seed crystals to the solution.
The mixture obtained after the addition of the seed crystals was kept at 35° C. for 15 hours to precipitate crystals. Thereafter, the mixture was cooled to 25° C. at a constant cooling rate of −2° C./hour over 5 hours, and was then cooled to 10° C. at a constant cooling rate of −10° C./hour over 1.5 hours, to further precipitate crystals. After the temperature had reached 10° C., the mixture was filtered for solid-liquid separation. The obtained crystal was dried under reduced pressure at 35° C. for 10 hours to obtain a reduced coenzyme Q10 Form II crystal (Form II rate: 100%; recovery rate: 97%).
In the present experiment, the liquid phase of the mixture was sampled immediately before addition of the seed crystals (at 0 hour), and then at 3 hours, 6 hours, 9 hours, 12 hours, 15 hours (so far, at 35° C.), 17.5 hours (30° C.), 20 hours (25° C.), 20.5 hours (20° C.), and 21.5 hours (10° C.) after the addition of the seed crystals. The concentration (wt. %) of reduced coenzyme Q10 dissolved in the liquid phase sample was measured according to high performance liquid chromatography.
Conditions for the high performance liquid chromatography, by which the reduced coenzyme Q10 concentration was measured, are shown below.
Column: SYMMETRY C18 (manufactured by Waters); 250 mm (length), 4.6 mm (inner diameter)
Mobile phase: C2H5OH:CH3OH=4:3 (v:v)
Detection wavelength: 210 nm
Retention time of reduced coenzyme Q10: 9.1 min.

For series [3] the following is noted: compared with oxidized coenzyme Q10; cited from earlier work.

Take `COc1c(O)c(C)c(C/C=C(\C)CC/C=C(\C)CC/C=C(\C)CC/C=C(\C)CC/C=C(\C)CC/C=C(\C)CC/C=C(\C)CC/C=C(\C)CC/C=C(\C)CCC=C(C)C)c(O)c1OC` [reduced coenzyme Q10 Form II crystal, reduced coenzyme Q10]: the “stability of the crystal form” value in series [1] is given as “much more stable”.

In the case of `COc1c(O)c(C)c(C/C=C(\C)CC/C=C(\C)CC/C=C(\C)CC/C=C(\C)CC/C=C(\C)CC/C=C(\C)CC/C=C(\C)CC/C=C(\C)CC/C=C(\C)CCC=C(C)C)c(O)c1OC` [reduced coenzyme Q10], the “Reduced coenzyme Q10 concentration” value in series [2] (crystallization time 0 h (immediately before addition of the seed crystals), 35° C.) worked out at 10.0 wt %; in series [2] (crystallization time 3 h, 35° C.), 9.9 wt %; in series [2] (crystallization time 6 h, 35° C.), 9.6 wt %; in series [2] (crystallization time 9 h, 35° C.), 9.2 wt %; in series [2] (crystallization time 12 h, 35° C.) it was 8.5 wt %; in series [2] (crystallization time 15 h, 35° C.), 7.2 wt %. Also, the “Reduced coenzyme Q10 concentration” value is given as 3.1 wt % in series [2] (crystallization time 17.5 h, 30° C.); 1.5 wt % in series [2] (crystallization time 20 h, 25° C.); 0.8 wt % in series [2] (crystallization time 20.5 h, 20° C.); 0.3 wt % in series [2] (crystallization time 21.5 h, 10° C.). Moreover, the oral absorbability entry in series [3] is listed as “higher oral absorbability than that of oxidized coenzyme Q10”.
